The results in this text go back to patent publication US11926613B2, “Kinase inhibitors for the treatment of central and peripheral nervous system disorders” (UNIVERSITY OF MIAMI, priority 2017, dated 2024).

SMILES strings stand for the structures. Entries after “also recorded” stand apart in the source; their conditions may differ. Where two headings read alike, the source gives them in different places.

In one assay the test system is Primary Neurons. Put plainly: HCS neurite outgrowth assay (High Content Screening with Primary Neurons). It counts as cell-based.
The test system of assay [1] is corticospinal tract (CST) axons. Put plainly: Unilateral pyramidotomy model, in vivo axon growth (CST axon sprouting). Particulars: mice, cortical injection, 2 mM final concentration, 5 weeks after unilateral pyramidotomy, N=2. The text has this:
B) Graph represents averages of sprouting axon index across two animals treated with indicated compounds. Error bars indicate range of data points. N=2 animals (mice).
To assess the role of the compounds described herein in axon growth in vivo, the unilateral pyramidotomy model was employed, in which the pyramid in the ventral brainstem was severed unilaterally, rostral to the decussation of corticospinal tract (CST) axons. The animals then received bilateral cortical injections of a compound described herein (or DMSO) mixed 1:1 with AAV8-UbC-GFP or AAV8-UbC-TdTomato (5×10^13 GC/mL) for a final concentration of 2 mM (2 animals (mice) for each condition). […] Axon growth in the cervical spinal cord was assessed after 5 weeks. Cervical sections of the spinal cord were stained with antibodies against PKCγ (to assess completeness of lesion), and GFP (to amplify the signal from the virus). For analyses, GFP+ axons sprouting into the denervated gray matter were counted at 0, 500, 1000 μm lateral to the central canal, and normalized to the number of GFP+ fibers at the level of the brainstem (sprouting axon index).

A further assay has as its system primary CNS neurons. Put plainly: Neurite outgrowth in primary CNS neurons (FIG. 1, FIG. 2). It is filed as cell-based. Particulars: FIG. 2, combination of both inhibitors.
Assay [2] has as its system neurons from hippocampi of E18 rat embryos. Nature of the assay: Neurite growth length (% NTL) in cultured E18 rat hippocampal neurons, 9-point dose response, 48 hours. It counts as cell-based. As to conditions: for activity at 0.078 µM / activity at 0.156 µM / activity at 0.312 µM / activity at 0.625 µM / activity at 1.25 µM / activity at 2.5 µM / activity at 5 µM / activity at 10 µM / activity at 20 µM: Rattus norvegicus, Neuron, 48 h; for activity at 0.078 µM: 78 nM. Summed up: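 Dissociated E18 rat hippocampal neurons at 1500 cells/well on PDL were exposed 48 h to 9 concentrations from 20 μM down to 0.078125 μM. After PFA fixation and βIII-tubulin/Hoechst staining, ArrayScan imaging traced neurites in at least 200–300 neurons per condition to give % NTL.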

For orientation: EC50 means the concentration giving half of the maximal effect. A higher EC50 goes with a need for much substance. For the molecule `O=C(N[C@@H]1CNC[C@H]1NC(=O)c1ccc(C(=O)c2cc(Br)ccc2O)cc1)c1ccncc1` [Example A88, N-((3R,4R)-4-(4-(5-bromo-2-hydroxybenzoyl)benzamido)pyrrolidin-3-yl)isonicotinamide], the 50% effective concentration (EC50) with Primary Neurons (Primary neuron) came out at 1160 nM. For the same molecule, the “CST axon sprouting (sprouting axon index)” value in assay [1] was “promotes CST axon sprouting in the spinal cord; also recorded: nearly a two-fold increase in sprouting”.
With `Cc1cncc2cccc(S(=O)(=O)N3CCCNC[C@@H]3C)c12` [Example H-1152], in the assay with primary CNS neurons, the “neurite outgrowth, ROCK inhibitor and S6K inhibitor combined” value is recorded as “synergistically promotes neurite outgrowth”.
`COc1ccc(O)c(C(=O)c2ccc(C(=O)N[C@@H]3CNC[C@H]3NC(=O)c3ccncc3)cc2)c1F` [Example A16, N-[(3R,4R)-4-[4-(2-fluoro-6-hydroxy-3-methoxybenzoyl)benzamido]pyrrolidin-3-yl]pyridine-4-carboxamide]: in the assay on Primary Neurons, the EC50 was found to be 5500 nM. Moreover, the “CST axon sprouting (sprouting axon index)” value in assay [1] was “nearly a two-fold increase in sprouting”; in assay [1] (listed as A-16), “promotes CST axon sprouting in the spinal cord”. Besides, the “neurite growth length (% NTL)” value is given as 117.55 % NTL in assay [2] (156 nM); 125.17 % NTL in assay [2] (312 nM); 144.99 % NTL in assay [2] (625 nM); 167.31 % NTL in assay [2] (1.25 μM); 228.24 % NTL in assay [2] (2.5 μM); 403.74 % NTL in assay [2] (5 μM). Further, the results for the “neurite growth length (% NTL)” value in assay [2] (10 μM) and in assay [2] (20 μM) were 573.73 % NTL and 660.88 % NTL, respectively. The activity at 0.078 µM in assay [2] amounted to 117%.
Regarding `CCc1cncnc1N1CCN(Cc2nc3ccc(C(F)(F)F)cc3[nH]2)CC1` [PF-4708761], the “neurite outgrowth, ROCK inhibitor and S6K inhibitor combined” value in the assay on primary CNS neurons was “synergistically promotes neurite outgrowth”.
In the assay with Primary Neurons (Primary neuron), `COc1ccc(O)c(C(=O)c2ccc(C(=O)O[C@@H]3CCCNC[C@H]3NC(=O)c3ccncc3)cc2)c1F` [Example A92, (3R,4R)-3-(isonicotinamido)azepan-4-yl 4-(2-fluoro-6-hydroxy-3-methoxybenzoyl)benzoate, reference compound] registered an EC50 of 711 nM. The “CST axon sprouting (sprouting axon index)” value in assay [1] is recorded as “promotes CST axon sprouting in the spinal cord; also recorded: nearly a two-fold increase in sprouting”.
For the molecule `O=C(N[C@@H]1CNC[C@H]1NC(=O)c1ccc2[nH]ncc2c1)c1ccc(C(=O)c2c(O)cccc2F)cc1` [Example A49, N-[(3R,4R)-4-[4-(2-fluoro-6-hydroxybenzoyl)benzamido]pyrrolidin-3-yl]-1H-indazole-5-carboxamide], in the assay with Primary Neurons (Primary neuron), the concentration for a half-maximal effect (EC50) is 2460 nM. Also, the activity at 0.078 µM in assay [2] is 107%. Besides, the activity at 0.156 µM in assay [2] (156 nM) stood at 99.5%. In assay [2] (312 nM), the activity at 0.312 µM came out at 101%. Further, the activity at 0.625 µM in assay [2] (625 nM) amounted to 112%. Besides, in assay [2] (1.25 μM), the activity at 1.25 µM worked out at 139%. Moreover, the activity at 2.5 µM in assay [2] (2.5 μM) was determined as 200%. Further, the activity at 5 µM in assay [2] (5 μM) amounted to 298%. The activity at 10 µM in assay [2] (10 μM) is 322%. The activity at 20 µM in assay [2] (20 μM) was found to be 207%.
For the molecule `O=C(Nc1ccccc1NC(=O)c1ccc(C(=O)c2ccccc2)cc1)c1ccncc1` [Example A6, N-[2-(4-benzoylbenzamido)phenyl]pyridine-4-carboxamide], the response in the assay on Primary Neurons (Primary neuron) was half-maximal at 1670 nM (EC50). Besides, in assay [2], the activity at 0.078 µM was determined as 94.7%. In addition, in assay [2] (156 nM), the activity at 0.156 µM was 106%. In addition, in assay [2] (312 nM), the activity at 0.312 µM is 83%. The activity at 0.625 µM in assay [2] (625 nM) amounted to 95.4%. The activity at 1.25 µM in assay [2] (1.25 μM) was determined as 94.1%. Further, the activity at 2.5 µM in assay [2] (2.5 μM) came out at 92.9%. Besides, in assay [2] (5 μM), the activity at 5 µM worked out at 105%. Moreover, the activity at 10 µM in assay [2] (10 μM) was 107%. Moreover, the activity at 20 µM in assay [2] (20 μM) is 121%.
Regarding `O=C(N[C@@H]1CNC[C@H]1NC(=O)c1ccc(C(=O)c2cc(Cl)ccc2O)cc1)c1ccncc1` [Example A85, N-[(3R,4R)-4-[4-(5-chloro-2-hydroxybenzoyl)benzamido]pyrrolidin-3-yl]pyridine-4-carboxamide], a half-maximal effect in the assay with Primary Neurons (Primary neuron) (EC50) was put at 3820 nM. The activity at 0.078 µM in assay [2] amounted to 134%. The activity at 0.156 µM in assay [2] (156 nM) worked out at 144%. In assay [2] (312 nM), the activity at 0.312 µM is 140%. The activity at 0.625 µM in assay [2] (625 nM) was 153%. The activity at 1.25 µM in assay [2] (1.25 μM) amounted to 177%. For the same molecule, in assay [2] (2.5 μM), the activity at 2.5 µM is 219%. For the same molecule, in assay [2] (5 μM), the activity at 5 µM was determined as 376%. Also, the activity at 10 µM in assay [2] (10 μM) was determined as 534%. In addition, the activity at 20 µM in assay [2] (20 μM) is 426%.
